Assay results as given in ChEMBL document CHEMBL5321262, “Antiviral Activity of Cannabidiolic Acid and Its Methyl Ester against SARS-CoV-2” (J Nat Prod, 2023).
Calls of active or inactive are those of the source. The calls are words filed in the database; no cut-off is given here.

What was measured:
SARS-CoV-2 [1] = assay: Antiviral activity against SARS-CoV-2 variant Omicron BA.5 infected African green monkey Vero E6 cells assessed as reduction in virus-induced cytopathic effect preincubated with virus for 1 hr followed by infection with cells and measured after 72 hrs by microscopic analysis; assay type: functional, organism-based; settings: Severe acute respiratory syndrome coronavirus 2, time 73.0 hrs
SARS-CoV-2 [2] = assay: Antiviral activity against SARS-CoV-2 variant Omicron BA.4 infected African green monkey Vero E6 cells assessed as reduction in virus-induced cytopathic effect preincubated with virus for 1 hr followed by infection with cells and measured after 72 hrs by microscopic analysis; assay type: functional, organism-based; settings: Severe acute respiratory syndrome coronavirus 2, time 73.0 hrs
SARS-CoV-2 [3] = assay: Antiviral activity against SARS-CoV-2 variant Omicron BA.3 infected African green monkey Vero E6 cells assessed as reduction in virus-induced cytopathic effect preincubated with virus for 1 hr followed by infection with cells and measured after 72 hrs by microscopic analysis; assay type: functional, organism-based; settings: Severe acute respiratory syndrome coronavirus 2, time 73.0 hrs
SARS-CoV-2 [4] = assay: Antiviral activity against SARS-CoV-2 variant Delta infected in African green monkey Vero E6 cells assessed as reduction in virus-induced cytopathic effect preincubated with virus for 1 hr followed by infection with cells and measured after 72 hrs by microscopic analysis; assay type: functional, organism-based; settings: Severe acute respiratory syndrome coronavirus 2, time 73.0 hrs
SARS-CoV-2 [5] = assay: Antiviral activity against SARS-CoV-2 variant Omicron BA.2 infected in African green monkey Vero E6 cells assessed as reduction in virus-induced cytopathic effect preincubated with virus for 1 hr followed by infection with cells and measured after 72 hrs by microscopic analysis; assay type: functional, organism-based; settings: Severe acute respiratory syndrome coronavirus 2, time 73.0 hrs
SARS-CoV-2 [6] = assay: Antiviral activity against SARS-CoV-2 variant Omicron BA.1 infected in African green monkey Vero E6 cells assessed as reduction in virus-induced cytopathic effect preincubated with virus for 1 hr followed by infection with cells and measured after 72 hrs by microscopic analysis; assay type: functional, organism-based; settings: Severe acute respiratory syndrome coronavirus 2, time 73.0 hrs
SARS-CoV-2 [7] = assay: Antiviral activity against SARS-CoV-2 variant Delta infected in African green monkey Vero E6 cells assessed as inhibition of virus titers of progeny virus in supernatant at 75 uM measured after 72 hrs by CPE assay relative to control; assay type: functional; settings: Severe acute respiratory syndrome coronavirus 2, Delta, Vero C1008
SARS-CoV-2 [8] = assay: Antiviral activity against SARS-CoV-2 variant Omicron BA.4 infected in African green monkey Vero E6 cells assessed as reduction in viral replication at 75 uM measured at 72 hrs post-infection by qRT-PCR analysis; assay type: functional, organism-based; settings: Severe acute respiratory syndrome coronavirus 2
SARS-CoV-2 [9] = assay: Antiviral activity against SARS-CoV-2 variant Omicron BA.4 infected in African green monkey Vero E6 cells assessed as inhibition of virus titers of progeny virus in supernatant at 75 uM measured after 72 hrs by CPE assay relative to control; assay type: functional; settings: Severe acute respiratory syndrome coronavirus 2, Omicron BA.4, Vero C1008
SARS-CoV-2 [10] = assay: Antiviral activity against SARS-CoV-2 variant Omicron BA.2 infected in African green monkey Vero E6 cells assessed as reduction in viral replication at 75 uM measured at 72 hrs post-infection by qRT-PCR analysis; assay type: functional, organism-based; settings: Severe acute respiratory syndrome coronavirus 2
SARS-CoV-2 [11] = assay: Antiviral activity against SARS-CoV-2 variant Omicron BA.5 infected African green monkey Vero E6 cells assessed as reduction in virus-induced cytopathic effect at 75 uM preincubated with virus for 1 hr followed by infection with cells and measured after 72 hrs by microscopic analysis; assay type: functional, organism-based; settings: Severe acute respiratory syndrome coronavirus 2, time 73.0 hrs
SARS-CoV-2 [12] = assay: Antiviral activity against SARS-CoV-2 variant Omicron BA.1 infected in African green monkey Vero E6 cells assessed as reduction in viral replication at 75 uM measured at 72 hrs post-infection by qRT-PCR analysis; assay type: functional, organism-based; settings: Severe acute respiratory syndrome coronavirus 2
SARS-CoV-2 [13] = assay: Antiviral activity against SARS-CoV-2 variant Omicron BA.2 infected in African green monkey Vero E6 cells assessed as reduction in virus titers of progeny virus in supernatant measured after 72 hrs by CPE assay; assay type: functional, organism-based; settings: Severe acute respiratory syndrome coronavirus 2, Omicron BA.2, Vero C1008, 72 h
SARS-CoV-2 [14] = assay: Antiviral activity against SARS-CoV-2 variant Delta infected in African green monkey Vero E6 cells assessed as reduction in virus-induced cytopathic effect at 75 uM preincubated with virus for 1 hr followed by infection with cells and measured after 72 hrs by microscopic analysis; assay type: functional, organism-based; settings: Severe acute respiratory syndrome coronavirus 2, time 73.0 hrs
SARS-CoV-2 [15] = assay: Antiviral activity against SARS-CoV-2 variant Omicron BA.5 infected in African green monkey Vero E6 cells assessed as inhibition of virus titers of progeny virus in supernatant at 75 uM measured after 72 hrs by CPE assay relative to control; assay type: functional; settings: Severe acute respiratory syndrome coronavirus 2, Omicron BA.5, Vero C1008
SARS-CoV-2 [16] = assay: Antiviral activity against SARS-CoV-2 variant Omicron BA.1 infected in African green monkey Vero E6 cells assessed as reduction in virus-induced cytopathic effect at 75 uM preincubated with virus for 1 hr followed by infection with cells and measured after 72 hrs by microscopic analysis; assay type: functional, organism-based; settings: Severe acute respiratory syndrome coronavirus 2, time 73.0 hrs
SARS-CoV-2 [17] = assay: Antiviral activity against SARS-CoV-2 variant Omicron BA.5 infected in African green monkey Vero E6 cells assessed as reduction in viral replication at 75 uM measured at 72 hrs post-infection by qRT-PCR analysis; assay type: functional, organism-based; settings: Severe acute respiratory syndrome coronavirus 2
SARS-CoV-2 [18] = assay: Antiviral activity against SARS-CoV-2 variant Omicron BA.1 infected in African green monkey Vero E6 cells assessed as reduction in virus titers of progeny virus in supernatant measured after 72 hrs by CPE assay; assay type: functional, organism-based; settings: Severe acute respiratory syndrome coronavirus 2, Omicron BA.1, Vero C1008, 72 h
SARS-CoV-2 [19] = assay: Antiviral activity against SARS-CoV-2 variant Delta infected in African green monkey Vero E6 cells assessed as reduction in virus titers of progeny virus in supernatant measured after 72 hrs by CPE assay; assay type: functional, organism-based; settings: Severe acute respiratory syndrome coronavirus 2, Delta, Vero C1008, 72 h
SARS-CoV-2 [20] = assay: Antiviral activity against SARS-CoV-2 variant Omicron BA.4 infected African green monkey Vero E6 cells assessed as reduction in virus-induced cytopathic effect at 75 uM preincubated with virus for 1 hr followed by infection with cells and measured after 72 hrs by microscopic analysis; assay type: functional, organism-based; settings: Severe acute respiratory syndrome coronavirus 2, time 73.0 hrs
SARS-CoV-2 [21] = assay: Antiviral activity against SARS-CoV-2 variant Omicron BA.3 infected African green monkey Vero E6 cells assessed as reduction in virus-induced cytopathic effect at 75 uM preincubated with virus for 1 hr followed by infection with cells and measured after 72 hrs by microscopic analysis; assay type: functional, organism-based; settings: Severe acute respiratory syndrome coronavirus 2, time 73.0 hrs
SARS-CoV-2 [22] = assay: Antiviral activity against SARS-CoV-2 variant Delta infected in African green monkey Vero E6 cells assessed as reduction in viral replication at 75 uM measured at 72 hrs post-infection by qRT-PCR analysis; assay type: functional, organism-based; settings: Severe acute respiratory syndrome coronavirus 2
SARS-CoV-2 [23] = assay: Antiviral activity against SARS-CoV-2 variant Omicron BA.3 infected in African green monkey Vero E6 cells assessed as reduction in virus titers of progeny virus in supernatant measured after 72 hrs by CPE assay; assay type: functional, organism-based; settings: Severe acute respiratory syndrome coronavirus 2, Omicron BA.3, Vero C1008, 72 h
SARS-CoV-2 [24] = assay: Antiviral activity against SARS-CoV-2 variant Omicron BA.4 infected in African green monkey Vero E6 cells assessed as reduction in virus titers of progeny virus in supernatant measured after 72 hrs by CPE assay; assay type: functional, organism-based; settings: Severe acute respiratory syndrome coronavirus 2, Omicron BA.4, Vero C1008, 72 h
SARS-CoV-2 [25] = assay: Antiviral activity against SARS-CoV-2 variant Omicron BA.1 infected in African green monkey Vero E6 cells assessed as inhibition of virus titers of progeny virus in supernatant at 75 uM measured after 72 hrs by CPE assay relative to control; assay type: functional; settings: Severe acute respiratory syndrome coronavirus 2, Omicron BA.1, Vero C1008
SARS-CoV-2 [26] = assay: Antiviral activity against SARS-CoV-2 variant Omicron BA.2 infected in African green monkey Vero E6 cells assessed as inhibition of virus titers of progeny virus in supernatant at 75 uM measured after 72 hrs by CPE assay relative to control; assay type: functional; settings: Severe acute respiratory syndrome coronavirus 2, Omicron BA.2, Vero C1008
SARS-CoV-2 [27] = assay: Antiviral activity against SARS-CoV-2 variant Omicron BA.3 infected in African green monkey Vero E6 cells assessed as inhibition of virus titers of progeny virus in supernatant at 75 uM measured after 72 hrs by CPE assay relative to control; assay type: functional; settings: Severe acute respiratory syndrome coronavirus 2, Omicron BA.3, Vero C1008
SARS-CoV-2 [28] = assay: Antiviral activity against SARS-CoV-2 variant Omicron BA.5 infected in African green monkey Vero E6 cells assessed as reduction in virus titers of progeny virus in supernatant measured after 72 hrs by CPE assay; assay type: functional, organism-based; settings: Severe acute respiratory syndrome coronavirus 2, Omicron BA.5, Vero C1008, 72 h
SARS-CoV-2 [29] = assay: Antiviral activity against SARS-CoV-2 variant Omicron BA.3 infected in African green monkey Vero E6 cells assessed as reduction in viral replication at 75 uM measured at 72 hrs post-infection by qRT-PCR analysis; assay type: functional, organism-based; settings: Severe acute respiratory syndrome coronavirus 2
SARS-CoV-2 [30] = assay: Antiviral activity against SARS-CoV-2 variant Omicron BA.2 infected in African green monkey Vero E6 cells assessed as reduction in virus-induced cytopathic effect at 75 uM preincubated with virus for 1 hr followed by infection with cells and measured after 72 hrs by microscopic analysis; assay type: functional, organism-based; settings: Severe acute respiratory syndrome coronavirus 2, time 73.0 hrs

CCCc1cc(O)c(C/C=C(\C)CCC=C(C)C)c(O)c1
Activity (SARS-CoV-2 [1]): inactive | Activity (SARS-CoV-2 [2]): inactive | Activity (SARS-CoV-2 [3]): inactive | Activity (SARS-CoV-2 [4]): inactive | Activity (SARS-CoV-2 [5]): inactive | Activity (SARS-CoV-2 [6]): inactive

CCCCCc1cc(O)c2c(c1)OC(C)(CCC=C(C)C)C=C2 (stereo not given) [CANNABICHROMENE]
Activity (SARS-CoV-2 [1]): inactive | Activity (SARS-CoV-2 [2]): inactive | Activity (SARS-CoV-2 [3]): inactive | Activity (SARS-CoV-2 [4]): inactive | Activity (SARS-CoV-2 [5]): inactive | Activity (SARS-CoV-2 [6]): inactive

C=C(C)[C@@H]1CCC(C)=C[C@H]1c1c(O)cc(CCCCC)c(C(=O)O)c1O [CANNABIDIOLIC ACID]
inhibition at 75 µM (SARS-CoV-2 [7]): > 90% | Activity (SARS-CoV-2 [8]): Active | inhibition at 75 µM (SARS-CoV-2 [9]): > 90% | Activity (SARS-CoV-2 [10]): Active | Activity (SARS-CoV-2 [11]): Active | Activity (SARS-CoV-2 [12]): Active | IC50 (SARS-CoV-2 [13]): 35.1 µM | Activity (SARS-CoV-2 [14]): Active | inhibition at 75 µM (SARS-CoV-2 [15]): > 90% | Activity (SARS-CoV-2 [16]): Active | Activity (SARS-CoV-2 [17]): Active | IC50 (SARS-CoV-2 [18]): 45.4 µM | IC50 (SARS-CoV-2 [19]): 30.7 µM | Activity (SARS-CoV-2 [20]): Active | Activity (SARS-CoV-2 [21]): Active | Activity (SARS-CoV-2 [22]): Active | IC50 (SARS-CoV-2 [23]): 31.7 µM | IC50 (SARS-CoV-2 [24]): 47.7 µM | inhibition at 75 µM (SARS-CoV-2 [25]): > 90% | inhibition at 75 µM (SARS-CoV-2 [26]): > 90% | inhibition at 75 µM (SARS-CoV-2 [27]): > 90% | IC50 (SARS-CoV-2 [28]): 47.5 µM | Activity (SARS-CoV-2 [29]): Active | Activity (SARS-CoV-2 [30]): Active

C=C(C)[C@@H]1CCC(C)=C[C@H]1c1c(O)cc(CCCCC)cc1O [CANNABIDIOL]
Activity (SARS-CoV-2 [1]): inactive | Activity (SARS-CoV-2 [2]): inactive | Activity (SARS-CoV-2 [3]): inactive | Activity (SARS-CoV-2 [4]): inactive | Activity (SARS-CoV-2 [5]): inactive | Activity (SARS-CoV-2 [6]): inactive

C=C(C)[C@@H]1CCC(C)=C[C@H]1c1c(O)cc(CCC)cc1O [CANNABIDIVARIN]
Activity (SARS-CoV-2 [1]): inactive | Activity (SARS-CoV-2 [2]): inactive | Activity (SARS-CoV-2 [3]): inactive | Activity (SARS-CoV-2 [4]): inactive | Activity (SARS-CoV-2 [5]): inactive | Activity (SARS-CoV-2 [6]): inactive

CCCCCc1cc(O)c(C/C=C(\C)CCC=C(C)C)c(O)c1C(=O)O [CANNABIGEROLIC ACID]
Activity (SARS-CoV-2 [1]): inactive | Activity (SARS-CoV-2 [2]): inactive | Activity (SARS-CoV-2 [3]): inactive | Activity (SARS-CoV-2 [4]): inactive | Activity (SARS-CoV-2 [5]): inactive | Activity (SARS-CoV-2 [6]): inactive

CCCCCc1cc(O)c(C/C=C(\C)CCC=C(C)C)c(O)c1 [CANNABIGEROL]
Activity (SARS-CoV-2 [1]): inactive | Activity (SARS-CoV-2 [2]): inactive | Activity (SARS-CoV-2 [3]): inactive | Activity (SARS-CoV-2 [4]): inactive | Activity (SARS-CoV-2 [5]): inactive | Activity (SARS-CoV-2 [6]): inactive
